Drawing on patent publication US20230265151A1, “GIP/GLP1 CO-AGONIST COMPOUNDS” (priority 2020, published 2023), this text covers EC50 and Emax for 4 molecules.

Read-outs that look alike come from different tables or passages of the source. Some results are limits rather than exact numbers.

Common to all, as to format: cell-based
One assay deals with T1, hGIPR (Homo sapiens, UniProt P48546).
T1 construct: expressed in transfected cells
T1 sequence (P48546 22-466): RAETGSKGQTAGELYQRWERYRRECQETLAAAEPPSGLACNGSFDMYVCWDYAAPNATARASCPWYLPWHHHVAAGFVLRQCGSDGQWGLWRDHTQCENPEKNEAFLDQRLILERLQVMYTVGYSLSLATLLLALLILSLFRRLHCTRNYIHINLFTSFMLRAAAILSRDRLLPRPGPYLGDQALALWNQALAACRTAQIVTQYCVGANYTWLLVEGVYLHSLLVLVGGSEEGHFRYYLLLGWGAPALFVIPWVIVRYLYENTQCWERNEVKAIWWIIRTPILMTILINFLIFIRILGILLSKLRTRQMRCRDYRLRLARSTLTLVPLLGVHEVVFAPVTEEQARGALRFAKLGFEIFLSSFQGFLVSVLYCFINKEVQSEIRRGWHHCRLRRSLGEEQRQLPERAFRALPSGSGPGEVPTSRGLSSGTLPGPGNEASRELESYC
The experiment in a line: Functional cAMP formation (HTRF) in HEK-293 clonal cells expressing hGIPR, 0.1% bovine casein, without or with 1.0% human serum albumin. The conditions noted are these: for EC50: geometric mean. Summed up:
(§1)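 Cells were stimulated with peptide for 30 min at 37° C, then lysed in buffer carrying cAMP-d2 and anti-cAMP Eu3+-cryptate for a competitive HTRF read after at least 60 min at room temperature. The 665/620 nm ratio was converted to nM cAMP against a standard curve.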
A general note: Cyclic AMP is a second messenger, typically raised through Gs and lowered through Gi signalling.

Another assay addresses hGLP-1R (Homo sapiens, UniProt P43220). The experiment in a line: Functional cAMP formation (HTRF) in HEK-293 clonal cells expressing hGLP-1R, 0.1% bovine casein, without or with 1.0% human serum albumin. Also noted: expressed in transfected cells. To be noted: for EC50: geometric mean; for Emax: read-out: hGLP-1R Emax, % ± SEM. Summed up:
as §1

The target of another assay is T2, hGCGR (Homo sapiens, UniProt P47871).
T2 construct: expressed in transfected cells
Kind of assay: Functional cAMP formation (HTRF) in HEK-293 clonal cells expressing hGCGR, 0.1% bovine casein, without or with 1.0% human serum albumin. To be noted: geometric mean. Summed up:
as §1

Where [1] appears, read: 0.1% bovine casein and 1.0% human serum albumin, 37° C., read-out: hGIPR EC50, nM (SEM, n).
Setting [2] is: HEK293, 0.1% bovine casein and 1.0% human serum albumin, 37° C., percent of maximal response to GIP(1-42)NH2, read-out: hGIPR Emax, % ± SEM.
Setting [3] is: HEK293, percent of maximal response to GIP(1-42)NH2, 37° C., 0.1% bovine casein, arithmetic mean, read-out: hGIPR Emax, % ± SEM.
Setting [4] is: cAMP, incubated at 37° C., 0.1% bovine casein (no human serum albumin), read-out: hGLP-1R EC50, nM (SEM, n).
[5] abbreviates: 0.1% bovine casein and 1.0% human serum albumin, 37° C., read-out: hGCGR EC50, nM (SEM, n).
The mark [6] stands for this setting: cAMP, incubated at 37° C., 0.1% bovine casein (no human serum albumin), read-out: hGCGR EC50, nM (SEM, n).

Chain of hGLP-1R (P43220 24-463): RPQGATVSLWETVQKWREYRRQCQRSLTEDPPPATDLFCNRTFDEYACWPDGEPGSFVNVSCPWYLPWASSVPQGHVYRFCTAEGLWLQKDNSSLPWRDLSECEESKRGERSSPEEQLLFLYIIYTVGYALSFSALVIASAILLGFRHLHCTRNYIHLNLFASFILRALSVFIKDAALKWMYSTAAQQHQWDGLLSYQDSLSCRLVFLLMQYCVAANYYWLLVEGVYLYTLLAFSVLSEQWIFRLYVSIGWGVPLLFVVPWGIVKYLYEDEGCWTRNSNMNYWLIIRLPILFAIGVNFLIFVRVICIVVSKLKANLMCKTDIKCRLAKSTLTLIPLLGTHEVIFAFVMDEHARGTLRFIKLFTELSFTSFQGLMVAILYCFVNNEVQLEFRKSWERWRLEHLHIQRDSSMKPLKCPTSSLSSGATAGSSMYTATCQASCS
T2 sequence (P47871 26-477): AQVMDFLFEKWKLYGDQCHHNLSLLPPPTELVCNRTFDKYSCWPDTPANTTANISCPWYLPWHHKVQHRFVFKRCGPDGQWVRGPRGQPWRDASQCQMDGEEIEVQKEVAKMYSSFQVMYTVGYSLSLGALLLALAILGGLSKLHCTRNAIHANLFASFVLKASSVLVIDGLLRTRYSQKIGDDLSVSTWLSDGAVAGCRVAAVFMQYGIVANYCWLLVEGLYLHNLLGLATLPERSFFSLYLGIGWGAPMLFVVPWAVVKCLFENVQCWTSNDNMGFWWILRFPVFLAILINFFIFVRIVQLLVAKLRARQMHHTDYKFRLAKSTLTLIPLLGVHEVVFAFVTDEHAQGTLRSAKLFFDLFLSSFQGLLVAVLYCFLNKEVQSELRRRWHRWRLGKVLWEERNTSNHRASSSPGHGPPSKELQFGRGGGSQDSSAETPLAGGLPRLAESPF

As a reminder, the EC50 is the concentration giving half of the maximal effect. Broadly, the Emax is the greatest response seen or fitted, relative to the assay's reference. Regarding `CC[C@H](C)[C@H](NC(=O)[C@H](CC(C)C)NC(=O)[C@](C)(Cc1ccc(O)cc1)NC(=O)[C@@H](CCC(=O)O)NC(=O)[C@@H](NC(=O)[C@H](Cc1ccccc1)NC(=O)[C@H](CCC(=O)O)NC(=O)C(C)(C)NC(=O)[C@H](CCC(N)=O)NC(=O)[C@H](C)NC(=O)[C@H](CCCCNC(=O)COCCOCCNC(=O)COCCOCCNC(=O)CC[C@H](NC(=O)CCCc1ccc(C(C)(C)C)cc1)C(=O)O)NC(=O)[C@H](CCCN)NC(=O)[C@H](CC(=O)O)NC(=O)[C@H](CC(C)C)NC(=O)[C@](C)(CC(C)C)NC(=O)[C@@H](NC(=O)[C@H](CO)NC(=O)[C@H](Cc1ccncc1)NC(=O)[C@H](CC(=O)O)NC(=O)[C@H](CO)NC(=O)[C@@H](NC(=O)[C@](C)(Cc1ccccc1F)NC(=O)[C@@H](NC(=O)CNC(=O)[C@H](CCC(=O)O)NC(=O)C(C)(C)NC(=O)[C@@H](N)Cc1ccc(O)cc1)[C@@H](C)O)[C@@H](C)O)[C@@H](C)CC)[C@@H](C)CC)C(=O)N[C@@H](CCC(=O)O)C(=O)NCC(=O)NCC(=O)N1CCC[C@H]1C(=O)N[C@@H](CO)C(=O)N[C@@H](CO)C(=O)NCC(=O)N[C@@H](C)C(=O)N1CCC[C@H]1C(=O)N1CCC[C@H]1C(=O)N1CCC[C@H]1C(=O)N[C@@H](CO)C(=O)N[C@@H](CCCCNC(=O)COCCOCCNC(=O)COCCOCCNC(=O)CC[C@H](NC(=O)CCCc1ccc(C(C)(C)C)cc1)C(=O)O)C(N)=O` [Example 135], the EC50 at hGIPR (setting [1]) is 0.0609 nM; on hGIPR (cAMP, incubated at 37° C., 0.1% bovine casein (no human serum albumin), read-out: hGIPR EC50, nM (SEM, n)), 0.0184 nM; at hGLP-1R (0.1% bovine casein and 1.0% human serum albumin, 37° C., read-out: hGLP-1R EC50, nM (SEM, n)), 0.936 nM; at hGLP-1R (setting [4]), 0.271 nM; at hGCGR (setting [5]) it was above 9950 nM; at hGCGR (setting [6]) it was above 9950 nM. The values for the Emax at hGIPR (setting [2]) and on hGIPR (setting [3]) were 91.2 ± 4.78% and 92.3 ± 2.64%, respectively.

Turning to `CC[C@H](C)[C@H](NC(=O)[C@H](CC(C)C)NC(=O)[C@](C)(Cc1ccc(O)cc1)NC(=O)[C@H](CCCCNC(=O)COCCOCCNC(=O)COCCOCCNC(=O)CC[C@H](NC(=O)CCCCCCCCCCCCC(=O)O)C(=O)O)NC(=O)[C@@H](NC(=O)[C@](C)(Cc1ccccc1)NC(=O)[C@H](CCC(=O)O)NC(=O)C(C)(C)NC(=O)[C@H](CCC(N)=O)NC(=O)[C@H](C)NC(=O)[C@H](CCCCNC(=O)COCCOCCNC(=O)COCCOCCNC(=O)CC[C@H](NC(=O)CCCCCCCCCCCCC(=O)O)C(=O)O)NC(=O)[C@H](CCCN)NC(=O)[C@H](CC(=O)O)NC(=O)[C@H](CC(C)C)NC(=O)[C@](C)(CC(C)C)NC(=O)[C@@H](NC(=O)[C@H](CO)NC(=O)[C@H](Cc1ccncc1)NC(=O)[C@H](CC(=O)O)NC(=O)[C@H](CO)NC(=O)[C@@H](NC(=O)[C@](C)(Cc1ccccc1F)NC(=O)[C@@H](NC(=O)CNC(=O)[C@H](CCC(=O)O)NC(=O)C(C)(C)NC(=O)[C@@H](N)Cc1ccc(O)cc1)[C@@H](C)O)[C@@H](C)O)[C@@H](C)CC)[C@@H](C)CC)C(=O)N[C@@H](CCC(=O)O)C(=O)NCC(=O)NCC(=O)N1CCC[C@H]1C(=O)N[C@@H](CO)C(=O)N[C@@H](CO)C(=O)NCC(=O)N[C@@H](C)C(=O)N1CCC[C@H]1C(=O)N1CCC[C@H]1C(=O)N1CCC[C@H]1C(=O)N[C@@H](CO)C(N)=O` [Example 82], the Emax at hGIPR (HEK293, read-out: hGIPR Emax, % ± SEM, percent of maximal response to GIP(1-42)NH2, 37° C., 0.1% bovine casein, arithmetic mean) turned out to be 81.4 ± 6.09%. In addition, the EC50 on hGIPR (hGIPR EC50, nM (SEM, n), cAMP, incubated at 37° C., 0.1% bovine casein (no human serum albumin)) was 0.0206 nM; on hGLP-1R (hGLP-1R EC50, nM (SEM, n), cAMP, incubated at 37° C., 0.1% bovine casein (no human serum albumin)), 4.78 nM; at hGCGR (hGCGR EC50, nM (SEM, n), cAMP, incubated at 37° C., 0.1% bovine casein (no human serum albumin)) it was above 9950 nM.

Take `CC[C@H](C)[C@H](NC(=O)[C@H](CC(C)C)NC(=O)[C@](C)(Cc1ccc(O)cc1)NC(=O)[C@@H](CCC(=O)O)NC(=O)[C@@H](NC(=O)[C@H](Cc1ccccc1)NC(=O)[C@H](CCC(=O)O)NC(=O)C(C)(C)NC(=O)[C@H](CCC(N)=O)NC(=O)[C@H](C)NC(=O)[C@H](CCCCNC(=O)[C@@H](N)CCCCNC(=O)[C@@H](N)CCCCNC(=O)CC[C@H](NC(=O)CCCCCCCCCCCCC(=O)O)C(=O)O)NC(=O)[C@H](CCCN)NC(=O)[C@H](CC(=O)O)NC(=O)[C@H](CC(C)C)NC(=O)[C@](C)(CC(C)C)NC(=O)[C@@H](NC(=O)C(C)(C)NC(=O)[C@@H](NC(=O)[C@H](CC(=O)O)NC(=O)[C@H](CO)NC(=O)[C@@H](NC(=O)[C@](C)(Cc1ccccc1F)NC(=O)[C@@H](NC(=O)CNC(=O)[C@H](CCC(=O)O)NC(=O)C(C)(C)NC(=O)[C@@H](N)Cc1ccc(O)cc1)[C@@H](C)O)[C@@H](C)O)C(C)C)[C@@H](C)CC)[C@@H](C)CC)C(=O)N[C@@H](CCC(=O)O)C(=O)NCC(=O)NCC(=O)N[C@@H](CCCCNC(=O)[C@@H](N)CCCCNC(=O)[C@@H](N)CCCCNC(=O)CC[C@H](NC(=O)CCCCCCCCCCCCC(=O)O)C(=O)O)C(=O)N[C@@H](CO)C(=O)N[C@@H](CO)C(=O)NCC(=O)N[C@@H](C)C(=O)N1CCC[C@H]1C(=O)N1CCC[C@H]1C(=O)N1CCC[C@H]1C(=O)N[C@@H](CO)C(N)=O` [Example 165]: the Emax on hGIPR (setting [3]) was 96.1%; on hGLP-1R (HEK293, percent of maximal response to GLP-1(7-36)NH2, 37° C., 0.1% bovine casein, arithmetic mean), 94.3%. Also, the results for the EC50 at hGLP-1R (setting [4]) and at hGCGR (setting [6]) were 0.291 nM and above 9950 nM, respectively.

As for `CCCCCCCCCCCC(=O)N[C@@H](CCC(=O)NCCOCCOCC(=O)NCCOCCOCC(=O)NCCCC[C@H](NC(=O)[C@H](CCCN)NC(=O)[C@H](CC(=O)O)NC(=O)[C@H](CC(C)C)NC(=O)[C@](C)(CC(C)C)NC(=O)[C@@H](NC(=O)C(C)(C)NC(=O)[C@H](Cc1ccc(O)cc1)NC(=O)[C@H](CC(=O)O)NC(=O)[C@H](CO)NC(=O)[C@@H](NC(=O)[C@](C)(Cc1ccccc1F)NC(=O)[C@@H](NC(=O)CNC(=O)[C@H](CCC(=O)O)NC(=O)C(C)(C)NC(=O)[C@@H](N)Cc1ccc(O)cc1)[C@@H](C)O)[C@@H](C)O)[C@@H](C)CC)C(=O)N[C@@H](C)C(=O)N[C@@H](CCC(N)=O)C(=O)NC(C)(C)C(=O)N[C@@H](CCCCNC(=O)COCCOCCNC(=O)COCCOCCNC(=O)CC[C@H](NC(=O)CCCCCCCCCCC)C(=O)O)C(=O)N[C@@H](Cc1ccccc1)C(=O)N[C@H](C(=O)N[C@H](CCC(=O)O)C(=O)N[C@@](C)(Cc1ccc(O)cc1)C(=O)N[C@@H](CC(C)C)C(=O)N[C@H](C(=O)N[C@@H](CCC(=O)O)C(=O)NCC(=O)NCC(=O)N1CCC[C@H]1C(=O)N[C@@H](CO)C(=O)N[C@@H](CO)C(=O)NCC(=O)N[C@@H](C)C(=O)N1CCC[C@H]1C(=O)N1CCC[C@H]1C(=O)N1CCC[C@H]1C(=O)N[C@@H](CO)C(N)=O)[C@@H](C)CC)[C@@H](C)CC)C(=O)O` [Example 300], the EC50 was 1.25 nM at hGIPR (setting [1]); 0.0128 nM at hGIPR (cAMP, 37° C., 0.1% bovine casein (no human serum albumin), read-out: hGIPR EC50, nM (SEM, n)); 0.194 nM at hGLP-1R (cAMP, 37° C., 0.1% bovine casein (no human serum albumin), read-out: hGLP-1R EC50, nM (SEM, n)); above 9950 nM at hGCGR (setting [5]); above 9950 nM at hGCGR (cAMP, 37° C., 0.1% bovine casein (no human serum albumin), read-out: hGCGR EC50, nM (SEM, n)). Besides, the Emax at hGIPR (setting [2]) is 91.5%; on hGLP-1R (HEK293, 0.1% bovine casein and 1.0% human serum albumin, 37° C., percent of maximal response to GLP-1(7-36)NH2), 109%.
